Results on 10 compounds are retold here after patent US20080070860A1, “Adenosine Analogs Useful as Anti-Bacterial and Anti Protozoan Agents” (UTI LIMITED PARTNERSHIP, priority 2005, published 2008).

For one series, the target named is T1, adenosine phosphorylase (Escherichia coli, UniProt P0ABP8).
T1 construct: assayed using the cell free lysate of E. coli as enzyme source; endogenous in cells; host or cells: Escherichia coli DH5alpha (cell-free lysate, 10,000 x g supernatant)
Kind of series: Adenosine phosphorylase assay (cleavage of nucleoside analog to base, E. coli cell free lysate, HPLC). It counts as biochemical, Escherichia coli DH5alpha. To be noted: 100 μM nucleoside analog, 20 min, 50 mM phosphate pH 7.4. On the procedure:
Escherichia coli DH5alpha cells were used as the source of adenosine phosphorylase to test the compounds of the present invention. E. coli DH5 alpha cells were harvested in log phase and collected by centrifugation. Cells were lysed by sonication, centrifuged at 10,000×g for 30 min and the supernatant was recovered for assay or storage at −60° C.
Adenosine phosphorylase activity was assayed using the cell free lysate of E. coli as enzyme source for catalysis of the cleavage of nucleoside analogs to their corresponding base analogs in the presence of 50 mM phosphate at pH 7.4. Reaction products were subjected to separation by reverse phase high performance liquid chromatography (HPLC) equipped with continuous scanning diode array detector as described below. Substrates and products were identified by retention time and UV spectra of their peaks.
Samples for HPLC were prepared post reaction by deproteination with 10% v/v of 50% TCA. Following centrifugation at 10,000 g for 5 min the supernatant was recovered for neutralization. A minimal amount of bromophenol blue was added and the sample was titrated with alamine-freon. Following a further centrifugation at 10,000 g for 5 min, the neutralized sample may be stored at −60° C.
Nucleosides and bases in a 10 μl sample were separated on an HPLC equipped with a scanning UV detector from 220 to 320 nm at 5 nm intervals, utilizing a reverse phase Waters Symmetry C18, 4.6×150 mm, 5 um column in tandem with a Waters guard column.
Compounds were identified by retention time and UV spectra at peak height as collected during separation.
The relative rate of conversion of 100 μM nucleoside analog to the corresponding base in 20 min (measured as the % of analog converted) was determined for the following compounds: 5′-deoxyadenosine, 41%; 2-chloroadenosine, 31%; 2-chloro-5′-deoxyadenosine, 8%; 2-fluoro-5′-deoxyadenosine, >80%; 6-thiopurine-5′-deoxyriboside, 61%; 2-amino-5′-deoxyadenosine, 7%.

Another series deals with adenosine kinase (Homo sapiens, UniProt P55263). To be noted: Kowaluk et al. 1998; cited from earlier work.
The next series addresses T2, adenosine deaminase (Homo sapiens, UniProt P00813).
T2 sequence (P00813 1-363): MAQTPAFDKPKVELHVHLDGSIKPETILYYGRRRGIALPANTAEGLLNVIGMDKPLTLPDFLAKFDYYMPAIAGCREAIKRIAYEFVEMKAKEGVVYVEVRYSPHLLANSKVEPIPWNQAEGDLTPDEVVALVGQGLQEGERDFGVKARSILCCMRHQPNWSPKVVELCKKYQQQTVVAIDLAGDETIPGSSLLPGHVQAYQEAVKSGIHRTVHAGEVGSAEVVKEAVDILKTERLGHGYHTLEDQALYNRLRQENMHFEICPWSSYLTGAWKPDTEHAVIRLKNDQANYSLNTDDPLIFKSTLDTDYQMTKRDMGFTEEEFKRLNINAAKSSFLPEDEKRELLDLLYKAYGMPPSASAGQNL
Particulars: cited from earlier work.

Broadly, the melting point is the temperature of the solid-liquid transition.

T1 sequence (P0ABP8 2-239): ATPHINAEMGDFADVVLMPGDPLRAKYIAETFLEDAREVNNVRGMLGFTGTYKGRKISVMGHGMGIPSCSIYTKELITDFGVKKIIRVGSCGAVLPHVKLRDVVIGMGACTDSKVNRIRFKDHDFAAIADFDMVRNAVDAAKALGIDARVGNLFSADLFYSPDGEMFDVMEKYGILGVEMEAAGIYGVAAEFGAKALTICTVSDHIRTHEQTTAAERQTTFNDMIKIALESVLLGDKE
adenosine kinase, sequence (P55263 whole entry, species assumed): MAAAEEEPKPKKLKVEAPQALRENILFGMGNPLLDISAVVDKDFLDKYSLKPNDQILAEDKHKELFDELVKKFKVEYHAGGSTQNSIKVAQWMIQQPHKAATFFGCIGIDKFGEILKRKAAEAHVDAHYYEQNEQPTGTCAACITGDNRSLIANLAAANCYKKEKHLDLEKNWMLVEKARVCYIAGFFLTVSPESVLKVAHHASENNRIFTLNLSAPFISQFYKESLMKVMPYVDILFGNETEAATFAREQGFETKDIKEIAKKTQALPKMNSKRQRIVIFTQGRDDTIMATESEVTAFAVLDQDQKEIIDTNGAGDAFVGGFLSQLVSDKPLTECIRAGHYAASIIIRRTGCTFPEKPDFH

Compound `COC[C@H]1O[C@@H](n2cnc3c(N)nc(Cl)nc32)[C@H](O)[C@@H]1O` came in with a melting point of 92 to 94 °C.
Same read-out and setting: the figure for `COC[C@H]1O[C@@H](n2cnc3c(N)nc(F)nc32)[C@H](O)[C@@H]1O` is 231 to 233 °C.
On to `C[C@H]1O[C@@H](n2cnc3c(N)nc(N)nc32)[C@H](O)[C@@H]1O` [2-amino-5′-deoxyadenosine], for which the melting point is 135 to 138 °C. Also, at adenosine phosphorylase, the “relative rate of conversion of nucleoside analog to the corresponding base (% of analog converted)” value (“relative rate … (% of analog converted)” below) stood at 7%.
As to `C[C@H]1O[C@@H](n2cnc3c(N)nc(Cl)nc32)[C@H](O)[C@@H]1O` [2-chloro-5′-deoxyadenosine], the “relative rate … (% of analog converted)” value at adenosine phosphorylase amounted to 8%.
As for `Nc1nc(Cl)nc2c1ncn2[C@@H]1O[C@H](CO)[C@@H](O)[C@H]1O` [2-chloroadenosine, reference compound], the “relative rate … (% of analog converted)” value on adenosine phosphorylase came out at 31%.
For `C[C@H]1O[C@@H](n2cnc3c(N)nc(F)nc32)[C@H](O)[C@@H]1O` [2-fluoro-5′-deoxyadenosine], the melting point was 244 to 245 °C. On adenosine phosphorylase, the “relative rate … (% of analog converted)” value is more than 80%.
Turning to `NC[C@H]1O[C@@H](n2cnc3c(N)ncnc32)[C@H](O)[C@@H]1O` [5′-deoxy-5′-amino-adenosine], the “inhibition of adenosine kinase” value on adenosine kinase is “potent inhibitor”.
Regarding `C[C@H]1O[C@@H](n2cnc3c(N)ncnc32)[C@H](O)[C@@H]1O` [5′-deoxyadenosine], the “relative rate … (% of analog converted)” value at adenosine phosphorylase was found to be 41%.
With `Cc1ncnc2nc[nH]c12` [6-methylpurine], the “susceptibility to adenosine deaminase” value on adenosine deaminase was “quite refractory”.
As for `C[C@H]1O[C@@H](n2cnc3c(S)ncnc32)[C@H](O)[C@@H]1O` [6-thiopurine-5′-deoxyriboside, 6-mercaptopurine-5′-deoxy-β-D-riboside], the “relative rate … (% of analog converted)” value on adenosine phosphorylase was 61%.
